{"source": "paper PMC5218480", "about": "(PLoS ONE, 2017)", "test_system": "MV-4-11 cells", "assay": "Gene expression microarray analysis (Affymetrix PrimeView) and GSEA", "type": "cell-based, human", "parameters": "RFU PODN (11730768_x_at) / Fold change /veh PODN (11730768_x_at) / RFU LINC00158 (11744669_a_at) / Fold change /veh LINC00158 (11744669_a_at) / RFU DUSP10 (11751237_a_at) / Fold change /veh DUSP10 (11751237_a_at) / RFU ID3 (11757404_x_at) / Fold change /veh ID3 (11757404_x_at) / RFU PLEKHG5 (11737974_s_at) / Fold change /veh PLEKHG5 (11737974_s_at) / RFU LRRC4B (11730491_at) / Fold change /veh LRRC4B (11730491_at) / RFU GIMAP4 (11747438_a_at) / Fold change /veh GIMAP4 (11747438_a_at) / RFU KRT8 (11758183_x_at) / Fold change /veh KRT8 (11758183_x_at) / RFU CNN1 (11734310_a_at) / Fold change /veh CNN1 (11734310_a_at) / RFU VPS37D (11726825_at) / Fold change /veh VPS37D (11726825_at) / RFU C10orf10 (11716522_x_at) / Fold change /veh C10orf10 (11716522_x_at) / RFU KIR2DL2 /// KIR2DL4 /// KIR2DL5A /// KIR2DL5B /// KIR2DS1 /// KIR2DS2 /// KIR2DS3 /// KIR2DS4 /// KIR3DL3 /// KIR3DL3 /// KIR3DS1 (11738374_at) / Fold change /veh KIR2DL2 /// KIR2DL4 /// KIR2DL5A /// KIR2DL5B /// KIR2DS1 /// KIR2DS2 /// KIR2DS3 /// KIR2DS4 /// KIR3DL3 /// KIR3DL3 /// KIR3DS1 (11738374_at) / RFU C1QL1 (11718748_at) / Fold change /veh C1QL1 (11718748_at) / RFU TMPRSS4 (11747572_a_at) / Fold change /veh TMPRSS4 (11747572_a_at) / RFU HAMP (11756126_x_at) / Fold change /veh HAMP (11756126_x_at) / RFU RNFT2 (11725882_a_at) / Fold change /veh RNFT2 (11725882_a_at) / RFU NR4A2 (11747474_a_at) / Fold change /veh NR4A2 (11747474_a_at) / RFU ABCC12 (11746883_a_at) / Fold change /veh ABCC12 (11746883_a_at) / RFU TMEM136 (11760407_x_at) / Fold change /veh TMEM136 (11760407_x_at) / RFU CLDN22 /// WWC2 (11732394_at) / Fold change /veh CLDN22 /// WWC2 (11732394_at) / RFU HLA-DPB1 (11760878_x_at) / Fold change /veh HLA-DPB1 (11760878_x_at) / RFU SPINT1 (11716480_a_at) / Fold change /veh SPINT1 (11716480_a_at) / RFU GAP43 (11754022_s_at) / Fold change /veh GAP43 (11754022_s_at) / RFU A4GNT (11735810_at) / Fold change /veh A4GNT (11735810_at) / RFU PRB3 (11715151_x_at) / Fold change /veh PRB3 (11715151_x_at) / RFU TUBB4B (11761932_at) / Fold change /veh TUBB4B (11761932_at) / RFU CAPN14 (11732068_a_at) / Fold change /veh CAPN14 (11732068_a_at) / RFU TMCC2 (11721928_a_at) / Fold change /veh TMCC2 (11721928_a_at) / RFU IRGQ (11745062_a_at) / Fold change /veh IRGQ (11745062_a_at) / RFU FAM174B (11720279_a_at) / Fold change /veh FAM174B (11720279_a_at) / RFU TMPRSS4 (11748680_a_at) / Fold change /veh TMPRSS4 (11748680_a_at) / RFU FAM212B (11763350_a_at) / Fold change /veh FAM212B (11763350_a_at) / RFU PLEKHG5 (11743358_a_at) / Fold change /veh PLEKHG5 (11743358_a_at) / RFU ZSCAN30 (11745921_a_at) / Fold change /veh ZSCAN30 (11745921_a_at) / RFU CMKLR1 (11741424_a_at) / Fold change /veh CMKLR1 (11741424_a_at) / RFU LOC101060620 /// MAPK8IP1 (11723275_at) / Fold change /veh LOC101060620 /// MAPK8IP1 (11723275_at) / RFU SPTSSB (11747773_x_at) / Fold change /veh SPTSSB (11747773_x_at) / RFU PRSS12 (11739890_at) / Fold change /veh PRSS12 (11739890_at) / RFU BIN1 (11741810_x_at) / Fold change /veh BIN1 (11741810_x_at) / RFU WNT11 (11732464_a_at) / Fold change /veh WNT11 (11732464_a_at) / RFU C10orf10 (11716521_a_at) / Fold change /veh C10orf10 (11716521_a_at) / RFU C5orf56 (11738089_at) / Fold change /veh C5orf56 (11738089_at) / RFU CYB561 (11721691_x_at) / Fold change /veh CYB561 (11721691_x_at) / RFU ANKRD19P (11752326_a_at) / Fold change /veh ANKRD19P (11752326_a_at) / RFU OR2T12 /// OR2T33 /// OR2T8 (11738714_s_at) / Fold change /veh OR2T12 /// OR2T33 /// OR2T8 (11738714_s_at) / RFU VCAN (11748164_a_at) / Fold change /veh VCAN (11748164_a_at) / RFU JSRP1 (11732532_at) / Fold change /veh JSRP1 (11732532_at) / RFU KRTAP10-11 (11738290_x_at) / Fold change /veh KRTAP10-11 (11738290_x_at) / RFU MYO3A (11730013_a_at) / Fold change /veh MYO3A (11730013_a_at) / RFU EBF3 (11725865_a_at) / Fold change /veh EBF3 (11725865_a_at) / RFU CAMK2N1 (11719241_x_at) / Fold change /veh CAMK2N1 (11719241_x_at) / RFU C5orf56 (11738088_a_at) / Fold change /veh C5orf56 (11738088_a_at) / RFU OLFML3 (11715873_a_at) / Fold change /veh OLFML3 (11715873_a_at) / RFU LOC100653217 /// NTM (11731650_a_at) / Fold change /veh LOC100653217 /// NTM (11731650_a_at) / RFU MAPK11 (11762145_a_at) / Fold change /veh MAPK11 (11762145_a_at) / RFU FIZ1 (11724087_x_at) / Fold change /veh FIZ1 (11724087_x_at) / RFU OASL (11726364_x_at) / Fold change /veh OASL (11726364_x_at) / RFU SOX15 (11748057_x_at) / Fold change /veh SOX15 (11748057_x_at) / RFU CD79A (11719716_a_at) / Fold change /veh CD79A (11719716_a_at) / RFU HIST1H1D (11736915_at) / Fold change /veh HIST1H1D (11736915_at) / RFU CASKIN2 (11723855_a_at) / Fold change /veh CASKIN2 (11723855_a_at) / RFU LOC730098 (11760151_x_at) / Fold change /veh LOC730098 (11760151_x_at) / RFU OR4N2 (11742367_at) / Fold change /veh OR4N2 (11742367_at) / RFU PRRT2 (11749266_a_at) / Fold change /veh PRRT2 (11749266_a_at) / RFU SNX32 (11753110_a_at) / Fold change /veh SNX32 (11753110_a_at) / RFU CDHR5 (11726645_a_at) / Fold change /veh CDHR5 (11726645_a_at) / RFU RCAN1 (11760418_a_at) / Fold change /veh RCAN1 (11760418_a_at) / RFU FAM167A (11723789_a_at) / Fold change /veh FAM167A (11723789_a_at) / RFU FAM26E (11764081_at) / Fold change /veh FAM26E (11764081_at) / RFU ISYNA1 (11749810_s_at) / Fold change /veh ISYNA1 (11749810_s_at) / RFU ACY1 (11761880_at) / Fold change /veh ACY1 (11761880_at) / RFU 11764098_at / Fold change /veh 11764098_at / RFU SAMD14 (11745864_x_at) / Fold change /veh SAMD14 (11745864_x_at) / RFU NPB (11741838_a_at) / Fold change /veh NPB (11741838_a_at) / RFU TMPRSS6 (11731388_a_at) / Fold change /veh TMPRSS6 (11731388_a_at) / RFU KRTAP10-2 (11738614_at) / Fold change /veh KRTAP10-2 (11738614_at) / RFU ARHGAP8 /// PRR5-ARHGAP8 (11727945_x_at) / Fold change /veh ARHGAP8 /// PRR5-ARHGAP8 (11727945_x_at) / RFU KRTAP5-7 /// NADSYN1 (11734609_at) / Fold change /veh KRTAP5-7 /// NADSYN1 (11734609_at) / RFU RASL12 (11751679_a_at) / Fold change /veh RASL12 (11751679_a_at) / RFU CDKN2B (11736163_a_at) / Fold change /veh CDKN2B (11736163_a_at) / RFU PRF1 (11729649_at) / Fold change /veh PRF1 (11729649_at) / RFU, ZNF638 /// ZNF638-IT1 / Fold change vs veh, ZNF638 /// ZNF638-IT1 / RFU, PANK3 / Fold change vs veh, PANK3 / RFU, SH3YL1 / Fold change vs veh, SH3YL1 / RFU, ZEB2 / Fold change vs veh, ZEB2 / RFU, NRIP1 / Fold change vs veh, NRIP1 / RFU, PTTG1IP / Fold change vs veh, PTTG1IP / RFU, CAPN2 / Fold change vs veh, CAPN2 / RFU, MED14 / Fold change vs veh, MED14 / RFU, SNORA58 / Fold change vs veh, SNORA58 / RFU, C1orf63 / Fold change vs veh, C1orf63 / RFU, LRRFIP1 / Fold change vs veh, LRRFIP1 / RFU, NDUFAF7 / Fold change vs veh, NDUFAF7 / RFU, SLC12A2 / Fold change vs veh, SLC12A2 / RFU, IBTK / Fold change vs veh, IBTK / RFU, ESF1 / Fold change vs veh, ESF1 / Fold change vs veh, TMEM50B / RFU, TAOK1 / Fold change vs veh, TAOK1 / RFU, ACBD3 / Fold change vs veh, ACBD3 / RFU, TMA16 / Fold change vs veh, TMA16 / RFU, RWDD3 / Fold change vs veh, RWDD3 / RFU, BCAT1 / Fold change vs veh, BCAT1 / RFU, EDEM3 / Fold change vs veh, EDEM3 / RFU, TMEM33 / Fold change vs veh, TMEM33 / RFU, WDR75 / Fold change vs veh, WDR75 / RFU, AHCTF1 / Fold change vs veh, AHCTF1 / RFU, TFRC / Fold change vs veh, TFRC / RFU, ZDHHC17 / Fold change vs veh, ZDHHC17 / RFU, NOM1 / Fold change vs veh, NOM1 / RFU, ARL8B / Fold change vs veh, ARL8B / RFU, ZBTB11 / Fold change vs veh, ZBTB11 / RFU, TAMM41 / Fold change vs veh, TAMM41 / RFU, KIAA1704 /// LOC100996395 / Fold change vs veh, KIAA1704 /// LOC100996395 / RFU, ING1 / Fold change vs veh, ING1 / RFU, TRMT61B / Fold change vs veh, TRMT61B / RFU, FUBP3 / Fold change vs veh, FUBP3 / RFU, TP53 / Fold change vs veh, TP53 / RFU, TNKS2 / Fold change vs veh, TNKS2 / RFU, ZFP14 / Fold change vs veh, ZFP14 / RFU, ACTR2 / Fold change vs veh, ACTR2 / RFU, PPP3R1 / Fold change vs veh, PPP3R1 / RFU, PIK3R1 / Fold change vs veh, PIK3R1 / RFU, HNRNPA1 / Fold change vs veh, HNRNPA1 / RFU, RNF170 / Fold change vs veh, RNF170 / RFU, ZNF28 / Fold change vs veh, ZNF28 / RFU, RNGTT / Fold change vs veh, RNGTT / RFU, OGT / Fold change vs veh, OGT / RFU, BRD1 / Fold change vs veh, BRD1 / RFU, MARS / Fold change vs veh, MARS / RFU, ZNF655 / Fold change vs veh, ZNF655 / RFU, FAHD1 / Fold change vs veh, FAHD1 / RFU, BDP1 / Fold change vs veh, BDP1 / RFU, LRRCC1 / Fold change vs veh, LRRCC1 / RFU, ARID1A / Fold change vs veh, ARID1A / RFU, ZNF146 / Fold change vs veh, ZNF146 / RFU, ZNF330 / Fold change vs veh, ZNF330 / RFU, GPN3 / Fold change vs veh, GPN3 / RFU, C9orf123 / Fold change vs veh, C9orf123 / RFU, N4BP2L2 / Fold change vs veh, N4BP2L2 / RFU, ARFIP1 / Fold change vs veh, ARFIP1 / RFU, FAM179B / Fold change vs veh, FAM179B / RFU, BCL10 / Fold change vs veh, BCL10 / RFU, UHRF1BP1L / Fold change vs veh, UHRF1BP1L / RFU, BET1 / Fold change vs veh, BET1 / RFU, CNOT2 / Fold change vs veh, CNOT2 / RFU, ZNF268 / Fold change vs veh, ZNF268 / Fold change vs veh, ZNF507 / RFU, DGCR2 / Fold change vs veh, DGCR2 / RFU, WDSUB1 / Fold change vs veh, WDSUB1 / Fold change vs veh, HSP90B1 /// MIR3652 / RFU, ADSS / Fold change vs veh, ADSS / RFU, GK / Fold change vs veh, GK / RFU, ZNF148 / Fold change vs veh, ZNF148 / RFU, TAF9 / Fold change vs veh, TAF9 / RFU, SLC1A5 / Fold change vs veh, SLC1A5 / RFU, SLMO2 / Fold change vs veh, SLMO2 / RFU, ABCC4 / Fold change vs veh, ABCC4 / RFU, LOC101060439 /// RAP1B / Fold change vs veh, LOC101060439 /// RAP1B / RFU, RFX7 / Fold change vs veh, RFX7 / RFU, GTPBP10 / Fold change vs veh, GTPBP10 / RFU, CNEP1R1 / Fold change vs veh, CNEP1R1 / RFU, BIVM-ERCC5 /// ERCC5 / Fold change vs veh, BIVM-ERCC5 /// ERCC5 / RFU, ILF3 / Fold change vs veh, ILF3 / RFU 11762660_at / Fold change /veh 11762660_at / RFU VCAN (11757783_s_at) / Fold change /veh VCAN (11757783_s_at) / RFU DDX43 (11728927_at) / Fold change /veh DDX43 (11728927_at) / RFU KRT8 (11758188_x_at) / Fold change /veh KRT8 (11758188_x_at) / RFU NKD1 (11759106_at) / Fold change /veh NKD1 (11759106_at) / RFU SRD5A1 (11742802_a_at) / Fold change /veh SRD5A1 (11742802_a_at) / RFU TPSAB1 /// TPSB2 (11721975_s_at) / Fold change /veh TPSAB1 /// TPSB2 (11721975_s_at) / RFU GSTM3 (11746129_a_at) / Fold change /veh GSTM3 (11746129_a_at) / RFU IL23R (11737362_x_at) / Fold change /veh IL23R (11737362_x_at) / RFU TMEM51 (11727254_a_at) / Fold change /veh TMEM51 (11727254_a_at) / RFU PIWIL2 (11732686_x_at) / Fold change /veh PIWIL2 (11732686_x_at) / RFU ORM1 (11744905_x_at) / Fold change /veh ORM1 (11744905_x_at) / RFU CCDC152 (11743942_at) / Fold change /veh CCDC152 (11743942_at) / RFU ECM1 (11717891_a_at) / Fold change /veh ECM1 (11717891_a_at) / RFU IL23R (11748794_a_at) / Fold change /veh IL23R (11748794_a_at) / RFU TNFAIP8L3 (11732012_x_at) / Fold change /veh TNFAIP8L3 (11732012_x_at) / RFU MBOAT4 (11741988_at) / Fold change /veh MBOAT4 (11741988_at) / RFU 11764193_at / Fold change /veh 11764193_at / RFU TMEM53 (11763286_at) / Fold change /veh TMEM53 (11763286_at) / RFU MAGEB2 (11727129_at) / Fold change /veh MAGEB2 (11727129_at) / RFU TMEM200A (11744735_a_at) / Fold change /veh TMEM200A (11744735_a_at) / RFU CCDC152 (11751479_a_at) / Fold change /veh CCDC152 (11751479_a_at) / RFU FAM211A (11726209_a_at) / Fold change /veh FAM211A (11726209_a_at) / RFU RGS16 (11746705_a_at) / Fold change /veh RGS16 (11746705_a_at) / RFU VCAN (11755009_s_at) / Fold change /veh VCAN (11755009_s_at) / RFU RHOB (11743442_s_at) / Fold change /veh RHOB (11743442_s_at) / RFU RGS16 (11720943_a_at) / Fold change /veh RGS16 (11720943_a_at) / RFU RGS16 (11720944_at) / Fold change /veh RGS16 (11720944_at) / RFU, VPS4B / Fold change vs veh, VPS4B / RFU, CREB1 / Fold change vs veh, CREB1 / RFU, DNAJC13 / Fold change vs veh, DNAJC13 / RFU, GNAQ / Fold change vs veh, GNAQ / RFU, CDK5R1 / Fold change vs veh, CDK5R1 / RFU, ZRANB3 / Fold change vs veh, ZRANB3 / RFU, CUL4A / Fold change vs veh, CUL4A / RFU, CCNY / Fold change vs veh, CCNY / RFU, UFL1 / Fold change vs veh, UFL1 / RFU, COG3 / Fold change vs veh, COG3 / RFU, DIAPH2 / Fold change vs veh, DIAPH2 / RFU, SKA2 / Fold change vs veh, SKA2 / RFU, AFF3 / Fold change vs veh, AFF3 / RFU, LMF1 / Fold change vs veh, LMF1 / RFU, IPO11 / Fold change vs veh, IPO11 / RFU, DFFB / Fold change vs veh, DFFB / RFU, FOXP1 / Fold change vs veh, FOXP1 / RFU, CARD8 / Fold change vs veh, CARD8 / RFU, STRN3 / Fold change vs veh, STRN3 / RFU, ADK / Fold change vs veh, ADK / RFU, RASSF2 / Fold change vs veh, RASSF2 / RFU, WIPF1 / Fold change vs veh, WIPF1 / RFU, LARP1B / Fold change vs veh, LARP1B / RFU, RASA1 / Fold change vs veh, RASA1 / RFU, RB1 / Fold change vs veh, RB1 / RFU, PPFIA1 / Fold change vs veh, PPFIA1 / RFU, MAT2A / Fold change vs veh, MAT2A / RFU, CCT5 / Fold change vs veh, CCT5 / RFU, WDR92 / Fold change vs veh, WDR92 / RFU, CUX1 / Fold change vs veh, CUX1 / RFU, TTC7A / Fold change vs veh, TTC7A / RFU, TMEM135 / Fold change vs veh, TMEM135 / RFU, DEPTOR / Fold change vs veh, DEPTOR / RFU, CPM / Fold change vs veh, CPM / RFU, DNAJB6 / Fold change vs veh, DNAJB6 / RFU, CACNA2D3 / Fold change vs veh, CACNA2D3 / RFU, DTX4 / Fold change vs veh, DTX4 / RFU, TFCP2 / Fold change vs veh, TFCP2 / RFU, GMCL1 /// GMCL1P1 / Fold change vs veh, GMCL1 /// GMCL1P1 / RFU, AEBP2 / Fold change vs veh, AEBP2 / RFU, SNHG1 /// SNORD22 /// SNORD25 /// SNORD26 /// SNORD27 /// SNORD28 /// SNORD29 /// SNORD31 / Fold change vs veh, SNHG1 /// SNORD22 /// SNORD25 /// SNORD26 /// SNORD27 /// SNORD28 /// SNORD29 /// SNORD31 / Fold change (Aza/veh), C12orf56 (ProbeSet 11735607_a_at) / Fold change (ACY-1035/veh), C12orf56 (ProbeSet 11735607_a_at) / Fold change (Aza/veh), FGFR1OP (ProbeSet 11751329_s_at) / Fold change (ACY-1035/veh), FGFR1OP (ProbeSet 11751329_s_at) / Fold change (Aza/veh), VPS36 (ProbeSet 11739960_a_at) / Fold change (ACY-1035/veh), VPS36 (ProbeSet 11739960_a_at) / RFU SYPL1 (11715823_x_at) / Fold change /veh SYPL1 (11715823_x_at) / RFU IGFBP7 (11715501_s_at) / Fold change /veh IGFBP7 (11715501_s_at) / RFU REEP3 (11722064_at) / Fold change /veh REEP3 (11722064_at) / RFU IGLL1 (11728026_x_at) / Fold change /veh IGLL1 (11728026_x_at): dose or concentration left out as unconfirmed", "details": "MV-4-11 cells, 48 hours", "data": [{"smiles": "Nc1ccc(-c2cccs2)cc1NC(=O)c1ccc2c(c1)cc(C1CC1)n2CCN1CCOCC1", "note": "[ACY-1035]", "values": [{"measurement": "RFU ARHGAP8 /// PRR5-ARHGAP8 (11727945_x_at)", "value": 101.90, "unit": "RFU"}]}]}
